Target: T1, proTNFα convertase enzyme (TACE) (Homo sapiens, UniProt P78536)
T1 construct: a partially purified, isolated enzyme assay, the enzyme being obtained from the membranes of THP-1; endogenous in cells; host or cells: THP-1 cell membranes (partially purified, per Mohler et al. 1994 Nature 370:218-220)
Assay: Partially purified, isolated enzyme assay for proTNFα convertase (TACE), fluorescent peptide substrate
Assay type: biochemical
Conditions: 10 μM of compound; enzyme from membranes of THP-1
Method: Recombinant human proMMP13 may be expressed and purified as described by Knauper et al. [V. Knauper et al., (1996) The Biochemical Journal 271:1544-1550 (1996)]. […] Activity is determined by measuring the fluorescence at λex 328 nm and λem 393 nm. Percent inhibition is calculated as follows: % Inhibition is equal to the [Fluorescenceplus inhibitor−Fluorescencebackgrouud] divided by the [Fluorescenceminus inhibitor−Fluorescencebackground].
The ability of the compounds to inhibit proTNFα convertase enzyme (TACE) may be assessed using a partially purified, isolated enzyme assay, the enzyme being obtained from the membranes of THP-1 as described by K. M. Mohler et al., (1994) Nature 370:218-220. The purified enzyme activity and inhibition thereof is determined by incubating the partially purified enzyme in the presence or absence of test compounds using the substrate 4′,5′-Dimethoxy-fluoresceinyl Ser.Pro.Leu.Ala.Gln.Ala.Val.Arg.Ser.Ser.Ser.Arg.Cys(4-(3-succinimid-1-yl)-fluorescein)-NH2 in assay buffer (50 mM Tris HCl, pH 7.4 containing 0.1% (w/v) Triton X-100 and 2 mM CaCl2), at 26° C. for 4 hours. The amount of inhibition is determined as for MMP13 except λex 485 nm and λem 538 nm were used. […]

T1 sequence (P78536 215-824): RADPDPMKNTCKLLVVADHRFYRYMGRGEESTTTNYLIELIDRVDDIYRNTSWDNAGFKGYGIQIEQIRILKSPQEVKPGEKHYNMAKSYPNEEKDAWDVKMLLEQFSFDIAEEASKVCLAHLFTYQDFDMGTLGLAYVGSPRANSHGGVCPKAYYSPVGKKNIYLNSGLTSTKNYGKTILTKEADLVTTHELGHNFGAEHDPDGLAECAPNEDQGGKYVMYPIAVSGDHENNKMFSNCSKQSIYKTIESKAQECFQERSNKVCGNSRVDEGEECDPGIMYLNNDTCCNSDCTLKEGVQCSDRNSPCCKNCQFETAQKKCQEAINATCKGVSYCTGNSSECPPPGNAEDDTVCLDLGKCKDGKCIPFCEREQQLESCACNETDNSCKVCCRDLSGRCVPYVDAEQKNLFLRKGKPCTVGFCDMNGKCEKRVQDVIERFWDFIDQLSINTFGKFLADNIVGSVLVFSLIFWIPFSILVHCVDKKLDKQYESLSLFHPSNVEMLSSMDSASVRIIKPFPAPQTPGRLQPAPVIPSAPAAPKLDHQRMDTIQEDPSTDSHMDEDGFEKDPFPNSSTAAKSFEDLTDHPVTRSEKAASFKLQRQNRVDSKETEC

inhibition at 10 µM: 72%
Compound: CC#CCOC1CCN(S(=O)(=O)CC(CCCc2ncccn2)N(O)C=O)CC1 (racemic) [compound 1, (R/S)-1-({[4-(But-2-ynyloxy)piperidin-1-yl]sulphonyl}methyl)-4-pyrimidin-2-ylbutyl(hydroxy)formamide]

Source: US20060063783A1, “Sulphonylpiperidine derivatives containing an alkenyl or alkynyl moiety for use as matrix metalloproteinase inhibitors” (ASTRAZENECA AB, priority 2002, published 2006)
